One data set relates to Arabidopsis leaf discs. The experiment in a line: Subcellular localization, uptake and accumulation of flg22 in leaf discs. It is filed as cell-based, Arabidopsis thaliana. Conditions: Col leaf discs. As to the method: Leaf discs were floated (abaxial side down) on 1–5 μM TAMRA–flg22 or 5–10 μM FAM–flg22 solution (in water) at room temperature for the indicated time (lower concentrations were used for overnight treatments). Inhibitors that affect endocytosis, MG132 (Sigma-Aldrich, 50 μM) or 2,3-butanedione monoxime (BDM; Sigma-Aldrich, 50 mM) were added at the same time as the peptides. FM4-64 (Invitrogen, 6–8 μM) or 2′,7′-bis-(2-carboxyethyl)-5-(and-6)-carboxyfluorescein (BCECF)-AM (cleaved by an endogenous plant esterase to BCECF, Invitrogen, 20–40 μM) mixed with peptide solution was vacuum infiltrated for 2 min into leaf discs ([Kang et al., 2014]) prior to incubation (floating on peptide/dye solution) for the indicated time. In some experiments FAM–Y-flg22 was used with results similar to FAM–flg22.
For experiments with mixed peptides, leaf discs were floated for the indicated time on 2 μM FAM–flg22, FAM–scrambled peptide or fluorescein mixed with 1 μM TAMRA–flg22. In all experiments, leaf discs were washed after treatment by gently shaking for several minutes in water and the abaxial side was imaged by confocal or epifluorescence microscopy (see ‘Microscopy’). Fluorescence intensity profiles were generated with ImageJ, as in [Spallek et al., (2013)] and [Bozkurt et al. (2015)] (see ‘Data analysis’).
Confocal images were obtained using a Zeiss LSM710 laser-scanning confocal microscope (Zeiss, Germany) as described in [Kang et al. (2014)]. Fluorescence was visualized as follows: GFP/FAM/fluorescein/BCECF excitation (ex) 488 nm/emission (em) 495–545 nm; TAMRA ex 561 nm/em 566–620 nm; FM4-64: ex 561 nm/em 686–758 nm. Green and red fluorescence was acquired for the same field using a sequential acquisition mode.
Fluorescence intensity profiles were generated with ImageJ (http://rsb.info.nih.gov/ij, last accessed 6 April 2017) using RGB Profiler and Color Profiler. Fluorescent puncta were manually counted in 20 μm × 20 μm confocal image areas as in [Irani et al. (2012)] and [Chaparro-Garcia et al., (2015)] and shown as a fraction ([Irani et al., 2012]; [Choi et al., 2013]). […]

In a further data set the test system is Arabidopsis plants. The experiment in a line: Long-distance transport after surface application of fluorescent peptide. It is filed as in vivo, Arabidopsis thaliana. To be noted: 1 d. How it is done: We applied 10–20 μl of 5 μM TAMRA–flg22 (without or with inhibitors: 50 μM MG132 or 50 mM BDM) to a filter paper disc placed on the adaxial side of one leaf of in vitro-grown Arabidopsis plants and distal tissues were imaged by confocal microscopy after 1 d. For experiments with mixed peptides, 5 μM TAMRA–flg22 + 10 μM FAM–scrambled peptides were used.
[^14C]sucrose radioactivity was quantified in a scintillation counter.

The target of a further data set is T1, FLS2 (Arabidopsis thaliana, UniProt Q9FL28).
T1 construct: treating Col and fls2 leaf discs (prefloated on water overnight) with 1 μM peptide and measuring ROS induction; from tissue; host or cells: Arabidopsis thaliana Col leaf discs (fls2 mutant as negative control)
T1 sequence (Q9FL28 24-1173): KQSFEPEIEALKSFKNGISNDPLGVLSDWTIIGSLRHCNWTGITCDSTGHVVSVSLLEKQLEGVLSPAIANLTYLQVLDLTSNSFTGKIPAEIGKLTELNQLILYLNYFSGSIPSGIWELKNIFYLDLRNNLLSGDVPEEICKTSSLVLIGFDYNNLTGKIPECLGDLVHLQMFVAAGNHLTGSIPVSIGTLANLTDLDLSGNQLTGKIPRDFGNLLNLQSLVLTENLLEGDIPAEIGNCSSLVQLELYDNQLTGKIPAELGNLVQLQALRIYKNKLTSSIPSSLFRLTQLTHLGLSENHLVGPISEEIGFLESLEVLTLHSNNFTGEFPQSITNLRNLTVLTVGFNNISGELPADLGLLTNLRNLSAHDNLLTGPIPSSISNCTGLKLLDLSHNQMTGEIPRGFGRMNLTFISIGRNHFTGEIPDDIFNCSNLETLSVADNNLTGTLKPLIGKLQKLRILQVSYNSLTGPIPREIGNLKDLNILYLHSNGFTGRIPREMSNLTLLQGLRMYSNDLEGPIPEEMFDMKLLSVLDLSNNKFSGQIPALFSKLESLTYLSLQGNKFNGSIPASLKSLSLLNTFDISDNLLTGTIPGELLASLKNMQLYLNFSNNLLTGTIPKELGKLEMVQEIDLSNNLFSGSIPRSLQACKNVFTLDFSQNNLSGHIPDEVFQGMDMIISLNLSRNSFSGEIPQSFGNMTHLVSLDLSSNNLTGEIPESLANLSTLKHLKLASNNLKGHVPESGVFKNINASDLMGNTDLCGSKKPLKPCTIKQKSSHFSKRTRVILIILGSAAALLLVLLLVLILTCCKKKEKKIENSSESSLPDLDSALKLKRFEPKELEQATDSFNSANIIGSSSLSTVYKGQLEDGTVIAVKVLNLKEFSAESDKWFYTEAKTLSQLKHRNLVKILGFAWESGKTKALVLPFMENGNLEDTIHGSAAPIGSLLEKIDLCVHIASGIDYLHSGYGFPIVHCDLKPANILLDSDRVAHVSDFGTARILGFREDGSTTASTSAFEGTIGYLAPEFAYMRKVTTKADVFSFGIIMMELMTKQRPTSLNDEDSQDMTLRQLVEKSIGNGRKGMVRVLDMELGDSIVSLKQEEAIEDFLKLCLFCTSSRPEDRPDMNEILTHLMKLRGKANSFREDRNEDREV
T1 sequence (Q94F62 26-615 partner): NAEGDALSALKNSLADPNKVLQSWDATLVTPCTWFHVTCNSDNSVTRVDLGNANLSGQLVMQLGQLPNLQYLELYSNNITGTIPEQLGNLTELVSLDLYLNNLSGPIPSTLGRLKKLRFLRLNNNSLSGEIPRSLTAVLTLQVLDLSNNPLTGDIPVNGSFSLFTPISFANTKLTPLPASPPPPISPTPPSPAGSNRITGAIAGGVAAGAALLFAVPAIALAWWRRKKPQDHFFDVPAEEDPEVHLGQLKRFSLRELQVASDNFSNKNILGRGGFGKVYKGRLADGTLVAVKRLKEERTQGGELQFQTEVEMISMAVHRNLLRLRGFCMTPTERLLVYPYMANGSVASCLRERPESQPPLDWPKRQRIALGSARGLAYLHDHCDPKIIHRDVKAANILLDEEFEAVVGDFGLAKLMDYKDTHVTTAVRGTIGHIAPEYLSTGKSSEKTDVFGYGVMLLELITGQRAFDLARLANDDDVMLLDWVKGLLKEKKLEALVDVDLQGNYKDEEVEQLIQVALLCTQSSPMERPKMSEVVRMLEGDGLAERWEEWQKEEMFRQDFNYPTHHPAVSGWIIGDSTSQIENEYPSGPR
The experiment in a line: ROS assay in leaf discs. It is filed as cell-based. Conditions: flg22-induced ROS; Supplementary Fig. S1B. How it is done:
Bioactivity was verified for each batch of peptides by treating Col and fls2 leaf discs (prefloated on water overnight) with 1 μM peptide and measuring ROS induction as described in ([Tateda et al., 2014]).

A further data set relates to Arabidopsis FLS2. To be noted: ref Bauer et al., 2001; cited from earlier work. The text has this:
The fate of flg22 inside plant cells is similar to that of Potato mop-top and Cauliflower mosaic virus movement proteins, which are endocytosed and delivered to pre-vacuoles/late endosomal structures ([Haupt et al., 2005]; [Carluccio et al., 2014]). Endosomal trafficking of the movement proteins is essential for the spread of viruses to distal tissues, as is endocytosis of flg22 for efficient peptide movement to systemic tissue, although ...

The structures appear in SMILES notation. Peptide text beside a SMILES is read from it.

As to `CC(=O)C(C)=NO` [BDM, 2,3-butanedione monoxime, reference compound], the “effect of inhibitor on initial binding/uptake of TAMRA–flg22” value with Arabidopsis leaf discs (5 μM TAMRA–flg22 with 50 μM MG132 or 50 mM BDM added simultaneously, 1–2 h) is “did not prevent initial peptide binding/uptake”. In addition, the “effect of inhibitor on overnight accumulation of TAMRA–flg22 in vacuoles” value in the data set on Arabidopsis leaf discs (1–2 μM TAMRA–flg22 with 50 μM MG132 or 50 mM BDM, overnight) is “did not accumulate in vacuoles”. The “effect of inhibitor on long-distance movement of TAMRA–flg22” value with Arabidopsis plants (Col, 5 μM TAMRA–flg22 with 50 μM MG132 or 50 mM BDM on filter paper disc) is “prevented”. Moreover, the “effect of endocytosis inhibitor on defense activation measured by ROS production” value on FLS2 is “impaired defense activation”.
Take `CC[C@H](C)[C@H](NC(=O)[C@H](CCC(N)=O)NC(=O)[C@H](CC(C)C)NC(=O)CNC(=O)[C@H](C)NC(=O)[C@H](C)NC(=O)[C@H](CC(=O)O)NC(=O)[C@H](CC(=O)O)NC(=O)[C@H](CCCCN)NC(=O)[C@H](C)NC(=O)[C@H](CO)NC(=O)[C@H](CC(N)=O)NC(=O)[C@@H](NC(=O)[C@H](CCCNC(=N)N)NC(=O)[C@H](CO)NC(=O)CNC(=O)[C@@H](NC(=O)[C@H](CO)NC(=O)[C@H](CC(C)C)NC(=O)[C@H](CCCNC(=N)N)NC(=O)[C@@H](N)CCC(N)=O)[C@@H](C)O)[C@@H](C)CC)C(=O)N[C@@H](C)C(=O)O` [flg22] (H-QRLSTGSRINSAKDDAAGLQIA-OH): the “amount detected in distal organs” value with Arabidopsis plants (fls2 and bak1 mutants versus Col, 5 μM on filter paper disc, confocal, P<0.0002, n≥7) was “significantly less”. For the same compound, the “reversibility of binding to microsomal membranes” value in the data set on Arabidopsis FLS2 is “reversible”.

Source of the values: article PMC5444442, “Flagellin peptide flg22 gains access to long-distance trafficking in Arabidopsis via its receptor, FLS2” (Journal of Experimental Botany, 2017).
